In patent publication US20120156146A1, “Compositions and Methods for Improving the Appearance of Facial Texture” (priority 2010, published 2012):

Tests used:
[1] = test system: textured facial skin (upper cheek area); experiment: In vivo facial texture test (Texture Area Fraction, split face, vehicle controlled); set-up: species or system human; details: vehicle+5% Hexyldecanol, 0.5 g per side of face twice daily, topical, 8 weeks, 330 subjects
Method: A 9 week in vivo study was conducted using a round robin, vehicle controlled, split face design including a 1 week normalization period with 330 subjects.
Treatment Regimen—The regimen begins with a one week washout period. […]
Images of the facial treatment sites are captured at baseline (week 0), and after 4 and 8 weeks of treatment and analyzed for changes to facial texture. […]
The region of interest (ROI), in this case the upper cheek area, was marked manually based on 12 predefined facial landmarks around the cheek—for example, corners of the eye, bridge of the nose, corners of the mouth. The degree of textured skin in the ROI were quantified objectively using image analysis algorithms based on an Optimus software platform, which automatically locates each surface feature and quantifies the total number, length and area of facial features shorter than 5 mm and less than 0.16 mm wide, known magnification used to convert pixel data to actual length and area data. […]

[2] = test system: HAS-2 gene (Hyaluronic Acid Synthase-2 gene); experiment: Hyaluronic Acid (HA) Synthase expression, GeneChip microarray in keratinocyte culture; format: cell-based; details: human telomerized keratinocytes, 10 micro molar, 6 hours exposure, six Affymetrix GeneChips, p-value=0.0366
Method: Individual experiments (referred to as batches) are generally comprised of 60 Affymetrix GeneChips® (referred to as “instances”) containing 6 vehicle control samples, 2 positive control samples and 52 individual test material samples. Duplication of test materials is performed across batches. In vitro testing is performed in 6-well plates to provide sufficient RNA for GeneChip® analysis (2-4 ug total RNA yield/well). Human telomerized keratinocytes are grown in EpiLife® media with 1× Human Keratinocyte Growth Supplement (Invitrogen) on collagen I coated cell culture flasks and plates (Becton Dickinson). Cells are seeded into 6-well plates at 20,000 cells/cm2 24 hours before chemical exposure. At t=−24 hours cells are trypsinized from T-75 flasks and plated into 6-well plates in basal growth medium. At t=0 media is removed and replaced with the appropriate dosing solution as per the experimental design. Dosing solutions are prepared the previous day in sterile 4 ml Falcon snap cap tubes. After 6 hours of chemical exposure cells are viewed and imaged. Cells are then lysed with 350 ul/well of RLT buffer containing β-mercaptoethanol (Qiagen), transferred to a 96-well plate, and stored at −20° C. […]
Data quality was determined using a variety of statistical measures, including t-tests, scatter biplots, and principal components analysis, depending upon the source and character of the data. […]

CCCCCCCCC(CO)CCCCCC (centres unmarked) [Hexyldecanol, 2-hexyldecan-1-ol]
Texture Area Fraction reduction versus vehicle control [1]: significantly (p<=0.10) reducing Texture Area Fraction better than the control | average fold change of transcriptional expression level of HAS-2 probe set IDs [2]: 1.336 fold change
